One series addresses T1, NRP1 (Homo sapiens, UniProt O14786).
T1 construct: purchased Abcam
Nature of the series: MST binding affinity to NRP1. On the procedure:
(§1) MST assay was used to analyze the binding ability of peptides 1–5 to RBD and NRP1. Specifically, RBD and NRP1 proteins were labeled using a lysine (Lys) labeling kit, respectively, and their final concentrations were adjusted to 50 nM. The peptides were serially diluted in a 1:1 gradient starting from an initial concentration of 12.5 μM. Subsequently, the labeled proteins were mixed with the diluted peptides in 100 mM potassium phosphate buffer (pH 7.0). After incubation at room temperature for 5 min, the mixture was loaded into standard MST glass capillaries. Detection was performed using a Monolith NT.115 instrument with the MST power set to 50% and the LED power set to 20%. The experiment was independently repeated three times.

Another series has as its target SARS-CoV-2 RBD. As to the kind of experiment: MST binding affinity to RBD. Conditions: for Kd: MST, 50 nM labeled protein, 100 mM potassium phosphate buffer pH 7.0. On the procedure: as §1
The subject of another series is A549 cells. As to the kind of experiment: MTT cytotoxicity assay. Format: cell-based, human. The following applies: 100 μM, 48 h. On the procedure: A549 cells ([…], catalog number: PCS-300-010) were purchased from the American Type Culture Collection (ATCC, Manassas, VA, United States). The cells were cultured in Airway Epithelial Cell Basal Medium (ATCC, catalog number: PCS-300-030) supplemented with Bronchial/Tracheal Epithelial Cell Growth Kit (ATCC, catalog number: PCS-300-040) and incubated in a 37 °C incubator with 5% CO2. Then, cells were seeded into 96-well plates at a density of 5 × 10^4 cells per well and incubated overnight at 37 °C with 5% CO2. Subsequently, cells were treated with 100 μM peptides 1–5 for 48 h. After treatment, MTT stock solution (0.5 mg/mL) was added to each well, followed by additional 4-h incubation. Finally, the absorbance signal was measured at 570 nm using a microplate reader.
Background: Formazan colour is commonly taken as a measure of viable cells.

In series [1] the test system is live SARS-CoV-2 Omicron XBB.1.5 strain. Also on record: species or system K18-hACE2 mice. The following applies: mouse, in vivo.
For series [2] the following is noted: mice, 1 and 5 mg/kg intranasal.
The next series deals with T2, hERG channel (Homo sapiens, UniProt Q12809).
T2 construct: purchased Invitrogen
T2 sequence (Q12809 whole entry): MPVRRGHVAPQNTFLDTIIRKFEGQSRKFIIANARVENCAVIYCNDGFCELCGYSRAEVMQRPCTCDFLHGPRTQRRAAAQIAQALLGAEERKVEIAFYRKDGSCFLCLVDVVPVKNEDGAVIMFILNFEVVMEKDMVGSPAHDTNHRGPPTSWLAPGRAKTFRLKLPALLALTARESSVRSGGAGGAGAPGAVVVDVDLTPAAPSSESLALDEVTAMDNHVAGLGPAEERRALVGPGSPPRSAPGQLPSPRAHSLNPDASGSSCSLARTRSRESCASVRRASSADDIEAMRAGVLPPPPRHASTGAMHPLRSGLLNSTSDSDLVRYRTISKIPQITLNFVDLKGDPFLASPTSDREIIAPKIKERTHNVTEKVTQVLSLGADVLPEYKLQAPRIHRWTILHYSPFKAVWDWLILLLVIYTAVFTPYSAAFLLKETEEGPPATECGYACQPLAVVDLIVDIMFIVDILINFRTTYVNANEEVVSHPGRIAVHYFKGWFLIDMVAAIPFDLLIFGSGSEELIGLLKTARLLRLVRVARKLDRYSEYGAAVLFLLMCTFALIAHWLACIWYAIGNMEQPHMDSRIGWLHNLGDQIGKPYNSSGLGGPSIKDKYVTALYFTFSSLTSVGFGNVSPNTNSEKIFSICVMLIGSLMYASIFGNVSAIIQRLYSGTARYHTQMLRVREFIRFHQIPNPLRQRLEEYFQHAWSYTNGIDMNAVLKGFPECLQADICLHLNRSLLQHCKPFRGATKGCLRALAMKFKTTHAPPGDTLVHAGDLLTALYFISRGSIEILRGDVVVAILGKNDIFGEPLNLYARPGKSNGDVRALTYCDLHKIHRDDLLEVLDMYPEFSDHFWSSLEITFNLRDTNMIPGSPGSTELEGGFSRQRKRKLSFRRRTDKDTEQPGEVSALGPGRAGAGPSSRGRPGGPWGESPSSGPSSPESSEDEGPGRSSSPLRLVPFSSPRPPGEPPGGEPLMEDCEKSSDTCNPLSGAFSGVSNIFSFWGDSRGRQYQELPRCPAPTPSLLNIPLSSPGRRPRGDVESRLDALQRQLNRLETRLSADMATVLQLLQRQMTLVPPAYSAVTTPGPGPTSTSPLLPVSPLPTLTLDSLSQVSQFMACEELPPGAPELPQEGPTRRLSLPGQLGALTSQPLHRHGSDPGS
As to the kind of experiment: Predictor hERG fluorescence polarization assay. Conditions: for IC50 at 4 h: human, Predictor hERG Membrane (Invitrogen kit). In kind it is binding. On the procedure: This study was conducted using the Predictor hERG Fluorescence Polarization Assay Kit purchased from Invitrogen. The kit comprises Predictor hERG Tracer Red, Predictor hERG Membrane, Predictor hERG FP Assay Buffer, and E-4031 as the positive control. The Predictor hERG Tracer Red was diluted to prepare a 4 nM tracer working solution, while the stock solution of E-4031 was diluted to a 120 μM E-4031 working solution. Subsequently, serial dilutions of E-4031 were prepared to serve as the reference compound. Test peptides were subjected to gradient dilution to generate solutions with 6 concentration gradients. For the assay procedure, buffer or compound solution was first added to the assay plate, followed by the addition of membrane and the tracer. After incubating the assay plate at 25 °C for 4 h, fluorescence polarization (FP) values (mp values) were measured using an EnVision microplate reader (PerkinElmer) equipped with a set of polarized filters. The half-maximal inhibitory concentration (IC50) of active compounds was determined using GraphPad Prism software.

Series [3] relates to SARS-CoV-2 Omicron XBB.1.5 pseudovirus. Conditions: 3.2 µM.

Non-standard residues stand in square brackets, D forms with d. Residues, ends and D or L forms follow the SMILES beside them. No end group written: not given here. *: point of attachment. Biotin = O=C1N[C@H]2[C@H](CS[C@H]2CCCCC(=O)*)N1; βAla = NCCC(=O)O

T1 sequence (O14786 22-923): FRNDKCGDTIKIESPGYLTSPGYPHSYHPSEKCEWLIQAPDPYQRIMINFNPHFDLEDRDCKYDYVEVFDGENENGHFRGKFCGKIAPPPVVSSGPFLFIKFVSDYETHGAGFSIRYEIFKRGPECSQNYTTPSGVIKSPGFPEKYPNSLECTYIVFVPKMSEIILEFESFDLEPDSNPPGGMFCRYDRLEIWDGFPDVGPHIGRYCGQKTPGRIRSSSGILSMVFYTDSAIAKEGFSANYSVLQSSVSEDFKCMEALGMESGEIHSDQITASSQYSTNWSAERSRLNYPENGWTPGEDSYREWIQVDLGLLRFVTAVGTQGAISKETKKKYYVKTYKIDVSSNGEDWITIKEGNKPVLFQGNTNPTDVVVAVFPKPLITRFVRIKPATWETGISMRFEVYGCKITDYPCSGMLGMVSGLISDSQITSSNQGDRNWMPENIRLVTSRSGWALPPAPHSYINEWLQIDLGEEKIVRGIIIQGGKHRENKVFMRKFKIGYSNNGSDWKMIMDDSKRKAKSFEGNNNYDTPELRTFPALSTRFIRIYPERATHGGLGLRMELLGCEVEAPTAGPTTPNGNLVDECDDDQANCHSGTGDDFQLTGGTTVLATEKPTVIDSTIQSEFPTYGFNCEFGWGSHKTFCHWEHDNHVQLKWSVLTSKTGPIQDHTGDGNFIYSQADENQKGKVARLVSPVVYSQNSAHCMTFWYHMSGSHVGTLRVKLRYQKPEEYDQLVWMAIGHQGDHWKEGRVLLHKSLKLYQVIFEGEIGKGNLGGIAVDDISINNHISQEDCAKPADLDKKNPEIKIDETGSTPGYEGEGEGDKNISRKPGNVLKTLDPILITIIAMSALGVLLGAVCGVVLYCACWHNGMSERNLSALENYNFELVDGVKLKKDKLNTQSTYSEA

On to `N=C(N)NCCC[C@@H](N)C(=O)N1CCC[C@@H]1C(=O)N1CCC[C@@H]1C(=O)N[C@H](CCCNC(=N)N)C(=O)N[C@H](CCC(=O)O)C(=O)NCC(=O)N[C@H](CCCNC(=N)N)C(=O)O` [NTP, rppregr] (H-[dR][dP][dP][dR][dE]G[dR]-OH), for which the Kd (as a rule, the concentration at which binding is half-saturated) at NRP1 was 141 nM.
At SARS-CoV-2 RBD, `CSCC[C@H](NC(=O)[C@@H](NC(=O)[C@@H](N)CC(C)C)C(C)C)C(=O)NCC(=O)N[C@@H](CC(C)C)C(=O)N[C@@H](CC(N)=O)C(=O)N[C@H](C(=O)N[C@@H](Cc1c[nH]c2ccccc12)C(=O)N[C@@H](CC(C)C)C(=O)N[C@@H](CCCNC(=N)N)C(=O)N[C@@H](Cc1ccc(O)cc1)C(=O)N[C@@H](CO)C(=O)N[C@@H](CCCCN)C(=O)NCCC(=O)N[C@@H](CCCCNC(=O)CCCC[C@@H]1SC[C@@H]2NC(=O)N[C@@H]21)C(N)=O)C(C)C` [PP-4] (H-LVMGLNVWLRYSK[βAla]K(Biotin)-NH2; N-terminus assumed) came in with a Kd of 79 nM. Besides, the “NRP1 (Kd)” value at NRP1 (MST, 50 nM labeled protein, 100 mM potassium phosphate buffer pH 7.0) was “no binding affinity”.
For `CC(C)C[C@H](NC(=O)[C@H](CCC(=O)O)NC(=O)[C@H](C)NC(=O)[C@@H](N)CCC(=O)O)C(=O)N[C@H](CC(=O)O)C(=O)N[C@H](C(=O)N[C@@H](CO)C(=O)N[C@@H](CC(=O)O)C(=O)N[C@@H](C)C(=O)N[C@@H](Cc1ccccc1)C(=O)N[C@@H](Cc1ccc(O)cc1)C(=O)N[C@@H](CCCNC(=N)N)C(=O)N[C@@H](Cc1ccccc1)C(=O)N[C@@H](Cc1ccccc1)C(=O)N[C@@H](CCCNC(=N)N)C(=O)N[C@@H](CCCNC(=N)N)C(=O)N[C@@H](C)C(=O)N[C@@H](CCCNC(=N)N)C(=O)O)C(C)C` [Peptide-1] (H-EAEL[dD]VSDAFYRFFRRAR-OH; N-terminus and C-terminus assumed), the “cytotoxicity to A549 cells” value in the series with A549 cells is “no obvious toxicity”. In series [1], the “viral load in the lungs of mice vs control” value is given as “significantly reduced”. Besides, in series [2], the “alanine aminotransferase (ALT) level” value was “did not change significantly”, the “aspartate aminotransferase (AST) level” value is “did not change significantly”, the “blood urea nitrogen (BUN) level” value was “did not change significantly” and the “creatinine (CRE) level” value is recorded as “did not change significantly”. Further, at hERG channel, the IC50 (in general, the concentration that gives 50% inhibition) at 4 h is more than 50000 nM. At SARS-CoV-2 RBD, this compound had a dissociation constant Kd of 19 nM. In addition, the “fold higher affinity for RBD compared with the single-target peptide” value with SARS-CoV-2 RBD (versus PP-4) is on record as “approximately 4.2 fold”. For the same compound, the “inhibition rate against SARS-CoV-2 Omicron XBB.1.5 infection” value in series [3] is recorded as “approximately 80%”. For the same compound, the “fold higher affinity for NRP1 compared with the single-target peptide” value on NRP1 (versus NTP) is approximately 4.4 fold.
Consider `CC(C)C[C@H](NC(=O)[C@H](C)NC(=O)[C@@H](NC(=O)[C@@H](N)CO)[C@@H](C)O)C(=O)N[C@H](CC(=O)O)C(=O)N[C@H](C(=O)N[C@@H](CO)C(=O)N[C@@H](CC(=O)O)C(=O)N[C@@H](C)C(=O)N[C@@H](Cc1ccccc1)C(=O)N[C@@H](Cc1ccc(O)cc1)C(=O)N[C@@H](CCCNC(=N)N)C(=O)N[C@@H](Cc1ccccc1)C(=O)N[C@@H](Cc1ccccc1)C(=O)N[C@@H](CCCNC(=N)N)C(=O)N[C@@H](CCCCN)C(=O)N[C@@H](C)C(=O)N[C@@H](CCCNC(=N)N)C(=O)O)C(C)C` [Peptide-2] (H-STAL[dD]VSDAFYRFFRKAR-OH; N-terminus and C-terminus assumed), for which, at hERG channel, the IC50 at 4 h is more than 50000 nM. In addition, binding at SARS-CoV-2 RBD was put at a Kd of 56 nM.
In the case of `CC[C@H](C)[C@H](NC(=O)[C@@H](N)CC(N)=O)C(=O)N[C@@H](CCC(=O)O)C(=O)N[C@@H](CC(C)C)C(=O)N[C@H](CC(=O)O)C(=O)N[C@@H](C)C(=O)N[C@@H](CO)C(=O)N[C@@H](CC(=O)O)C(=O)N[C@@H](C)C(=O)N[C@@H](Cc1ccccc1)C(=O)N[C@H](C(=O)N[C@@H](CCCNC(=N)N)C(=O)N[C@@H](Cc1ccccc1)C(=O)N[C@@H](Cc1ccccc1)C(=O)N[C@@H](CCCNC(=N)N)C(=O)N[C@@H](CCC(N)=O)C(=O)N[C@@H](C)C(=O)N[C@@H](CCCNC(=N)N)C(=O)O)C(C)C` [Peptide-4] (H-NIEL[dD]ASDAFVRFFRQAR-OH; N-terminus and C-terminus assumed), the IC50 at 4 h at hERG channel is more than 50000 nM. The Kd on SARS-CoV-2 RBD stood at 69 nM.
Take `CC[C@H](C)[C@H](NC(=O)[C@H](CCC(=O)O)NC(=O)[C@H](CS)NC(=O)[C@H](C)N)C(=O)N[C@H](CC(=O)O)C(=O)N[C@H](C(=O)N[C@@H](CO)C(=O)N[C@@H](CC(=O)O)C(=O)N[C@@H](C)C(=O)N[C@@H](Cc1ccccc1)C(=O)N[C@@H](CCCCN)C(=O)N[C@@H](CCCNC(=N)N)C(=O)N[C@@H](Cc1ccccc1)C(=O)N[C@@H](Cc1ccccc1)C(=O)N[C@@H](CCCNC(=N)N)C(=O)N[C@@H](C)C(=O)N[C@@H](C)C(=O)N[C@@H](CCCNC(=N)N)C(=O)O)C(C)C` [Peptide-5] (H-ACEI[dD]VSDAFKRFFRAAR-OH; N-terminus and C-terminus assumed): the IC50 at 4 h on hERG channel is more than 50000 nM. For the same compound, the Kd at SARS-CoV-2 RBD worked out at 43 nM.
As to ELELVVSTAFYRFFRHAR [Peptide-3], the IC50 at hERG channel was more than 50000 nM. Further, on NRP1, binding was put at a Kd of 81 nM.
